# Assay results reported in article PMC3503517 (Chembiochem : a European journal of chemical biology, 2011).
# Where two headings read alike, the source gives them in different places.
# T1: human DCTPP1 (Homo sapiens, UniProt Q9H773)
# T1 sequence (Q9H773 1-170): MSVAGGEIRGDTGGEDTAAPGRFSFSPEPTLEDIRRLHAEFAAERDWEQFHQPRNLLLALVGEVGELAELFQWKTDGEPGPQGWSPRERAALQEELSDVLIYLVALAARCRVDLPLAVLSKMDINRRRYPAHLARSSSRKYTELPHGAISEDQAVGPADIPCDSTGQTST
# Assays:
# human DCTPP1 [1] = molecular target: T1, human DCTPP1; type: biochemical
# HeLa cells [2] = test: BrdC/BrdCTP incorporation into DNA detected with anti-BrdU antibody; type: cell-based, human; conditions: one-hour treatment
# human DCTPP1 [3] = molecular target: T1, human DCTPP1; conditions: ITC, 25°C, value ± SD
# HeLa cells [4] = test: Cytotoxicity; type: cell-based; conditions: Homo sapiens, 48 h, read-out: IC50 (cell number)
# native gel or EMSA + SEC = molecular target: the molecule itself; test: native gel or EMSA + SEC
molecule,measurement,setting,value
Nc1nc(=O)n([C@H]2C[C@H](O)[C@@H](COP(=O)(O)OP(=O)(O)OP(=O)(O)O)O2)cc1I [5-I-dCTP],Km,human DCTPP1 [1]; as substrate of DCTPP1,239 µM
same,kcat,human DCTPP1 [1]; as substrate of DCTPP1,0.000864 s⁻¹
Nc1nc(=O)n([C@H]2C[C@H](O)[C@@H](COP(=O)(O)OP(=O)(O)OP(=O)(O)O)O2)cc1Br [BrdCTP],BrdU incorporation (fraction of anti-BrdU reactive cells),HeLa cells [2],30–43 % of cells
Nc1nc(=O)n([C@H]2C[C@H](O)[C@@H](CO)O2)cc1Br [BrdC],BrdU incorporation (fraction of anti-BrdU reactive cells),HeLa cells [2],30–43 % of cells
"CC(C)[C@]12O[C@H]1[C@@H]1O[C@]13[C@]1(O[C@H]1C[C@H]1C4=C(CC[C@@]13C)C(=O)OC4)[C@@H]2O [compound 1, triptolide]",ΔH,human DCTPP1 [3],-19.98 ± 1.70 kcal/mol
same,ΔH,human DCTPP1 [3]; listed as triptolide,–19.98 ± 1.70 kcal/mol
same,n (binding stoichiometry),human DCTPP1 [3]; per DCTPP1 monomer,0.601 ± 0.075
same,IC50,HeLa cells [4],7 to 10 nM
Nc1ccn([C@@H]2O[C@H](COP(=O)(O)OP(=O)(O)OP(=O)(O)O)[C@@H](O)C2(F)F)c(=O)n1 [gemcitabine triphosphate],activity as a DCTPP1 substrate,"human DCTPP1 [1]; kinetic assays, data not shown",did not show activity as a DCTPP1 substrate
"recombinant human dCTP pyrophosphatase 1 (DCTPP1), GST tag cleaved off (enzyme, UniProt Q9H773 1-170, looked up) MSVAGGEIRGDTGGEDTAAPGRFSFSPEPTLEDIRRLHAEFAAERDWEQFHQPRNLLLALVGEVGELAELFQWKTDGEPGPQGWSPRERAALQEELSDVLIYLVALAARCRVDLPLAVLSKMDINRRRYPAHLARSSSRKYTELPHGAISEDQAVGPADIPCDSTGQTST",stoichiometry N,native gel or EMSA + SEC,2
